Where “and” joins values, the source holds several entries; their conditions need not be identical. Equal entries are not always repeated.
Tests used:
[1] = LC-HRMS analysis, enzymatic assay buffer + probe without enzyme; conditions: 1 h
Procedure: These analyses were carried out by using UPLC-HRMS procedure with Vanquish UPLC system coupled to a Thermo Scientific Q-Exactive Plus, operating in negative electrospray ionization mode. The chromatographic separation was carried out using a Phenomenex Synergi 4 µ Polar-RP 80 A (150 × 2 mm) equipped with a Phenomenex Polar-RP (4 mm × 2 mm) security guard column. The mobile phase consisted of A: acetonitrile 0.1% formic acid and B: 0.1% formic acid. We used a linear elution gradient, starting from 80% of A to 5% A in 3 min, 3 min at 5% A, an equilibration of 4 min for a total run time of 10.00 min, at 300 µl/min flow rate. The autosampler temperature was set at 15 °C, the injection volume was 5 µl and column was maintained at 40 °C. […] Before injecting the samples, the blanks in the list were analyzed and every biological sample was analyzed in duplicate. The biological samples analyzed were as follow: (1) Enzymatic assay Buffer; (2) Enzymatic assay Buffer + NAD^+; (3) Enzymatic assay Buffer + Probe 10 or Probe 11; (4) Enzymatic assay Buffer + ALDH1A1; (5) Enzymatic assay Buffer + ALDH1A2; (6) Enzymatic assay Buffer + ALDH1A3; (7) Enzymatic assay Buffer + ALDH1A1 + Probe 10 or Probe 11; (8) Enzymatic assay Buffer + ALDH1A2 + Probe 10 or Probe 11; (9) Enzymatic assay Buffer + ALDH1A3 + Probe 10 or Probe 11. […]

[2] = tested on: patient-derived glioma cell 3060; test: Fluorescent microscopy of probe in cells; format: cell-based, human; conditions: 10 µM
[3] = tested on: patient-derived glioma cell 3054; test: Fluorescent microscopy of probe in cells; format: cell-based, human; conditions: 10 µM
[4] = tested on: patient-derived glioma cells 3060; test: Cell viability (MTT assay); format: cell-based, human; conditions: 3060; 10uM, 72 h
Procedure: (§1) In total, 10 × 10^5 U87MG human glioblastoma, patient-derived glioma cells 3054 and 3060, HEK293T human embryonic kidney, 4T1 murine mammary carcinoma, human fetal astrocytes cell lines were plated in their respective medium and treated for 72 h with our fluorescent probe 10 and 11, solubilized in DMSO in a final concentration of […]. We treated controls with DMSO in the same final concentration and we compared the viability of each treatment to controls. The viability of cells was measured using the 3-(4,5-dimethylthiazol-2-yl)-2,5-diphenyltetrazolium assay (MTT assay)[23].

[5] = tested on: HEK293T human embryonic kidney; test: Cell viability (MTT assay); format: cell-based; conditions: 10uM, 72 h
Procedure: as §1

HEK293T cells = test: Fluorescent microscopy of probe in cells; format: cell-based, human; conditions: 10 µM, 2 h (Fig. 5g)
Procedure: In total, 20,000 cells/ml of U87MG, HEK293T, hASTRO and 4T1 were seeded onto glass cover slips in 24-well plates. The cells incubated at 37 °C in a 5% CO2 atmosphere overnight. Cells were washed with 1 ml of PBS buffer two times, then a 10 μM solution of probes was added to each well for 2 h. For nuclei staining, 1 µg/ml of DAPI was added the last 15 min of treatment. The cover slips were removed and washed with PBS buffer, and fixed with 0.5 ml of 4% formaldehyde solution for 10 min. The cover slips were washed with 1 ml of PBS, then slides were prepared using Mounting Media (Merck Life Science). Fluorescence images were acquired using a Leica THUNDER Imager 3D Live Cell (Leica Microsystems, Wetzlar, Germany) microscope equipped with an S Fluor 40×/1.3 objective using the LAS X software.

COc1cc(/C=C/C(O)=C/C(=O)/C=C/c2ccc(OCc3cn(CCOc4ccc(C=O)cc4)nn3)c(OC)c2)ccc1O [Probe 10]
AREA TIC of Probe 10 [1]: 9480149 and 10113371 and 16727419 and 14473716
fluorescence in cells ([2]; 2 h): can determine fluorescence
If ROI ([2]; 3060, 2 h (Fig. 5g)): 254.68 a.u. and 232.45 a.u. and 200.36 a.u. and 210.52 a.u. and 200.45 a.u.
fluorescence in cells ([3]; 2 h): can determine fluorescence
If ROI ([3]; 3054, 2 h (Fig. 5g)): 223.52 a.u. and 222.87 a.u. and 254.268 a.u. and 245.65 a.u. and 230.548 a.u.
% cell viability [4]: 90.8745% and 90.3258% and 91.3365% and 91.3478% and 90.9745% and 90.4258% and 91.2365%
% cell viability [5]: 84.6125% and 86.4467% and 91.2307% and 96.8963% and 84.5125% and 86.3467% and 91.1307%
If ROI (HEK293T cells): 64.441 a.u. and 43.961 a.u. and 59.771 a.u. and 72.091 a.u. and 46.461 a.u.
